Data as given in the CheMixHub viscosity set.
± gives the uncertainty stated by the source.

Test: xn = mol fraction of the nth substance listed

ClC(Cl)(Cl)Cl + CCO
Settings | viscosity [mPa·s]
298.15 K, 101 kPa, x2 = 0.0247 | 0.89 ± 0.009
298.15 K, 101 kPa, x2 = 0.0475 | 0.884 ± 0.009
298.15 K, 101 kPa, x2 = 0.0769 | 0.883 ± 0.009
298.15 K, 101 kPa, x2 = 0.1 | 0.872 ± 0.023
298.15 K, 101 kPa, x2 = 0.1289 | 0.874 ± 0.008
298.15 K, 101 kPa, x2 = 0.2438 | 0.886 ± 0.009
298.15 K, 101 kPa, x2 = 0.27 | 0.886 ± 0.023
298.15 K, 101 kPa, x2 = 0.37 | 0.915 ± 0.024
298.15 K, 101 kPa, x2 = 0.3813 | 0.931 ± 0.009
298.15 K, 101 kPa, x2 = 0.45 | 0.947 ± 0.025
298.15 K, 101 kPa, x2 = 0.5136 | 0.974 ± 0.009
298.15 K, 101 kPa, x2 = 0.645 | 1.023 ± 0.01
298.15 K, 101 kPa, x2 = 0.69 | 1.037 ± 0.027
298.15 K, 101 kPa, x2 = 0.768 | 1.068 ± 0.01
298.15 K, 101 kPa, x2 = 0.77 | 1.064 ± 0.028
298.15 K, 101 kPa, x2 = 0.83 | 1.079 ± 0.028
298.15 K, 101 kPa, x2 = 0.8966 | 1.108 ± 0.01
298.15 K, 101 kPa, x2 = 0.93 | 1.091 ± 0.029
298.15 K, 101 kPa, x2 = 0.9687 | 1.1 ± 0.01
303 K, 101.33 kPa, x2 = 0.37 | 0.8302 ± 0.01
303 K, 101.33 kPa, x2 = 0.45 | 0.8567 ± 0.01
303 K, 101.33 kPa, x2 = 0.53 | 0.8727 ± 0.011
303 K, 101.33 kPa, x2 = 0.64 | 0.9314 ± 0.011
303 K, 101.33 kPa, x2 = 0.69 | 0.9449 ± 0.012
303 K, 101.33 kPa, x2 = 0.73 | 0.9479 ± 0.012
303 K, 101.33 kPa, x2 = 0.83 | 0.9806 ± 0.012
303 K, 101.33 kPa, x2 = 0.89 | 0.9857 ± 0.012
303 K, 101.33 kPa, x2 = 0.91 | 1.007 ± 0.013
303 K, 101.33 kPa, x2 = 0.93 | 0.9995 ± 0.013
303 K, 101.33 kPa, x2 = 0.95 | 1.008 ± 0.013
303.15 K, 101 kPa, x2 = 0.0565 | 0.8183 ± 0.0065
303.15 K, 101 kPa, x2 = 0.0932 | 0.8112 ± 0.0064
303.15 K, 101 kPa, x2 = 0.1798 | 0.8093 ± 0.0063
303.15 K, 101 kPa, x2 = 0.312 | 0.8313 ± 0.0063
303.15 K, 101 kPa, x2 = 0.4579 | 0.8759 ± 0.0065
303.15 K, 101 kPa, x2 = 0.5273 | 0.8994 ± 0.0065
303.15 K, 101 kPa, x2 = 0.6028 | 0.924 ± 0.0066
303.15 K, 101 kPa, x2 = 0.689 | 0.949 ± 0.0067
303.15 K, 101 kPa, x2 = 0.7868 | 0.974 ± 0.0067
303.15 K, 101 kPa, x2 = 0.867 | 0.9867 ± 0.0067
303.15 K, 101 kPa, x2 = 0.9134 | 0.9917 ± 0.0067
303.15 K, 101 kPa, x2 = 0.9566 | 0.9933 ± 0.0067
303.15 K, 101 kPa, x2 = 0.9724 | 0.9934 ± 0.0066
308.15 K, 101 kPa, x2 = 0.0247 | 0.773 ± 0.008
308.15 K, 101 kPa, x2 = 0.0475 | 0.768 ± 0.008
308.15 K, 101 kPa, x2 = 0.0769 | 0.762 ± 0.007
308.15 K, 101 kPa, x2 = 0.1289 | 0.759 ± 0.007
308.15 K, 101 kPa, x2 = 0.2438 | 0.768 ± 0.008
308.15 K, 101 kPa, x2 = 0.3813 | 0.783 ± 0.008
308.15 K, 101 kPa, x2 = 0.5136 | 0.825 ± 0.008
308.15 K, 101 kPa, x2 = 0.645 | 0.857 ± 0.008
308.15 K, 101 kPa, x2 = 0.768 | 0.891 ± 0.009
308.15 K, 101 kPa, x2 = 0.8966 | 0.923 ± 0.009
308.15 K, 101 kPa, x2 = 0.9687 | 0.914 ± 0.009
313 K, 101.33 kPa, x2 = 0.37 | 0.7056 ± 0.0086
313 K, 101.33 kPa, x2 = 0.45 | 0.7242 ± 0.0089
313 K, 101.33 kPa, x2 = 0.53 | 0.7385 ± 0.0091
313 K, 101.33 kPa, x2 = 0.64 | 0.7801 ± 0.0097
313 K, 101.33 kPa, x2 = 0.69 | 0.7889 ± 0.0098
313 K, 101.33 kPa, x2 = 0.73 | 0.7949 ± 0.0099
313 K, 101.33 kPa, x2 = 0.83 | 0.8127 ± 0.01
313 K, 101.33 kPa, x2 = 0.89 | 0.817 ± 0.01
313 K, 101.33 kPa, x2 = 0.91 | 0.8276 ± 0.01
313 K, 101.33 kPa, x2 = 0.93 | 0.8251 ± 0.01
313 K, 101.33 kPa, x2 = 0.95 | 0.8358 ± 0.01
318.15 K, 101 kPa, x2 = 0.0247 | 0.678 ± 0.007
318.15 K, 101 kPa, x2 = 0.0475 | 0.676 ± 0.007
318.15 K, 101 kPa, x2 = 0.0769 | 0.671 ± 0.007
318.15 K, 101 kPa, x2 = 0.1289 | 0.664 ± 0.007
318.15 K, 101 kPa, x2 = 0.2438 | 0.672 ± 0.007
318.15 K, 101 kPa, x2 = 0.3813 | 0.672 ± 0.007
318.15 K, 101 kPa, x2 = 0.5136 | 0.698 ± 0.007
318.15 K, 101 kPa, x2 = 0.645 | 0.72 ± 0.007
318.15 K, 101 kPa, x2 = 0.768 | 0.744 ± 0.007
318.15 K, 101 kPa, x2 = 0.8966 | 0.773 ± 0.008
318.15 K, 101 kPa, x2 = 0.9687 | 0.769 ± 0.008
323 K, 101.33 kPa, x2 = 0.37 | 0.6106 ± 0.0075
323 K, 101.33 kPa, x2 = 0.45 | 0.6123 ± 0.0075
323 K, 101.33 kPa, x2 = 0.53 | 0.6316 ± 0.0078
323 K, 101.33 kPa, x2 = 0.64 | 0.6595 ± 0.0082
323 K, 101.33 kPa, x2 = 0.69 | 0.6672 ± 0.0083
323 K, 101.33 kPa, x2 = 0.73 | 0.6698 ± 0.0083
323 K, 101.33 kPa, x2 = 0.83 | 0.6807 ± 0.0085
323 K, 101.33 kPa, x2 = 0.89 | 0.6862 ± 0.0086
323 K, 101.33 kPa, x2 = 0.91 | 0.6947 ± 0.0087
323 K, 101.33 kPa, x2 = 0.93 | 0.6952 ± 0.0088
323 K, 101.33 kPa, x2 = 0.95 | 0.6993 ± 0.0088

CCN(CC)CC + Cc1cc(C)cc(C)c1
viscosity [mPa·s], 101 kPa
Settings | x2 = 0.1033 | x2 = 0.2154 | x2 = 0.2645 | x2 = 0.3959 | x2 = 0.5072 | x2 = 0.6007 | x2 = 0.7132 | x2 = 0.7989 | x2 = 0.8692
293.15 K | 0.386 ± 0.01 | 0.41 ± 0.01 | 0.422 ± 0.01 | 0.453 ± 0.011 | 0.484 ± 0.011 | 0.517 ± 0.011 | 0.56 ± 0.011 | 0.593 ± 0.011 | 0.628 ± 0.011
303.15 K | 0.35 ± 0.01 | 0.369 ± 0.01 | 0.378 ± 0.01 | 0.407 ± 0.01 | 0.432 ± 0.01 | 0.462 ± 0.011 | 0.497 ± 0.011 | 0.526 ± 0.011 | 0.557 ± 0.011
313.15 K | 0.315 ± 0.01 | 0.334 ± 0.01 | 0.342 ± 0.01 | 0.368 ± 0.01 | 0.391 ± 0.01 | 0.416 ± 0.01 | 0.449 ± 0.01 | 0.473 ± 0.011 | 0.5 ± 0.011
323.15 K | 0.288 ± 0.01 | 0.304 ± 0.01 | 0.312 ± 0.01 | 0.335 ± 0.01 | 0.357 ± 0.01 | 0.378 ± 0.01 | 0.407 ± 0.01 | 0.429 ± 0.01 | 0.452 ± 0.01
